The values below come from EPA's ToxValDB 9.5 (doi:10.2903/j.efsa.2017.4903).

A word on the LOAEL: it is the lowest dose or exposure tested at which an adverse effect was seen. A word on the NOAEL: it is the highest dose or exposure tested at which no adverse effect was seen.

The test system of one data set is Rattus norvegicus. Particulars: for LOAEL: subchronic, duration: 90 days, clinical chemistry; for NOAEL: reproduction developmental.
The next data set relates to Folsomia candida. Particulars: chronic/long-term; duration: 28 days; mortality.
The subject of the next data set is Hypoaspis aculeifer. As to conditions: chronic/long-term; duration: 14 days; reproduction.
In the next data set the test system is Pleurozium sp. Particulars: acute; duration: 72 hours; other.
For the next data set, the system named is Pontoscolex corethrurus. Particulars: chronic/long-term.
For a further data set, the system named is Apis mellifera. As to conditions: acute, mortality.
In a further data set the test system is Colinus virginianus. As to conditions: reproduction developmental.
For another data set, the system named is Coturnix japonica. As to conditions: acute; oral; mortality.
Another data set has as its system Danio rerio. As to conditions: chronic; reproduction.

Compound `Nc1ccc(O)c(Cl)c1` [3-Chloro-4-hydroxyaniline] gave an LOAEL in the data set on Rattus norvegicus of 10 mg/kg-day.

With `Nc1cccc(Cl)c1` [3-Chloroaniline], the NOEC stood at 9.5 mg/kg in the data set with Folsomia candida, 50 mg/kg with Hypoaspis aculeifer, 1 mg/L in the data set on Pleurozium sp. and 125 mg/kg with Pontoscolex corethrurus (reproduction). This compound also registered an LOAEL with Rattus norvegicus of 10 mg/kg-day.

Turning to `CC(C)OC(=O)Nc1cccc(Cl)c1` [Chlorpropham], the LD50 was 96.1 µg/piece in the data set on Apis mellifera (dermal); 505 µg/piece with Apis mellifera (oral, unspecified); greater than 2000 mg/kg-day in the data set on Coturnix japonica; 4200 mg/kg-day with Rattus norvegicus (acute, oral, mortality). The NOAEL in the data set on Canidae (acute, oral, Beagle, mobility) came to 50 mg/kg-day; with Canidae (chronic, duration: 60 weeks, oral, diet, Beagle, organ weight), 5 mg/kg-day; with Canidae (short-term, duration: 28 days, Dog Other) it was 5 mg/kg-day; in the data set with Colinus virginianus, 94.7 mg/kg-day; with Rattus norvegicus (body weight), 50 mg/kg-day; with Rattus norvegicus (immunology) it was 44.5 mg/kg-day. Also, the NOEC with Danio rerio was 0.32 mg/L; in the data set on Folsomia candida it was 17.2 mg/kg; in the data set on Pontoscolex corethrurus (growth) it was 30 mg/kg.
